target: T1, Human GO (Homo sapiens, UniProt Q9UJM8); experiment: GO enzymatic assay (coupled fluorescence/HRP assay, glycolate substrate); type: biochemical; settings: not given
T1 construct: purchased Novus Biologicals NBP1-72412
T1 sequence (Q9UJM8 1-370): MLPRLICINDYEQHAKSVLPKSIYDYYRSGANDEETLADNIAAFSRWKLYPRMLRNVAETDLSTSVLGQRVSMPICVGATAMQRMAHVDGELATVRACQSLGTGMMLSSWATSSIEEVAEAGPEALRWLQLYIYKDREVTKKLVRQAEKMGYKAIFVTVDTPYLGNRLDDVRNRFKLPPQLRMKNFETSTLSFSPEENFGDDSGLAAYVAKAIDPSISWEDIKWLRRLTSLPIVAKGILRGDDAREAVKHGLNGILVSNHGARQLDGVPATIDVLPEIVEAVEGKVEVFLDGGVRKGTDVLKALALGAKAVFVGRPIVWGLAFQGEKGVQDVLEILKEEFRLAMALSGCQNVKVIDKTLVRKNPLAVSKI
Experimental: Assay 1: GO Enzymatic Assay
GO was incubated with its substrate, glycolate, in 50 mM potassium phosphate buffer, pH 7. […] The enzyme was optimized and the kinetics was determined.
Compound inhibition was determined by adding various concentrations of inhibitors in the GO enzyme assay. The IC50 value for each measured compound was generated from sigmoidal dose-response (variable slope) curves with GraphPad Prism software (GraphPad Software, Inc., San Diego, Calif.) using the percent inhibition of GO activity relative to DMSO control.

| SMILES | IC50 [nM] |
| --- | --- |
| O=C(O)c1[nH]nnc1Oc1ccc(-c2ccc(Cl)cc2)cc1 [Compound 86, 4-((4′-chloro-[1,1′-biphenyl]-4-yl)oxy)-1H-1,2,3-triazole-5-carboxylic acid] | < 100 |
| O=C(O)c1[nH]nnc1Oc1ccc(Cl)c(Cl)c1 [Compound 88, 4-(3,4-dichlorophenoxy)-1H-1,2,3-triazole-5-carboxylic acid] | < 100 |
| O=C(O)c1[nH]nnc1Oc1ccc(F)c(F)c1 [Compound 94, 4-(3,4-difluorophenoxy)-1H-1,2,3-triazole-5-carboxylic acid] | < 100 |
| CC(C)(C)C(=O)OCn1nnc(Oc2ccc(Cl)c(Cl)c2)c1C(=O)O [Compound 102, 4-(3,4-dichlorophenoxy)-1-((pivaloyloxy)methyl)-1H-1,2,3-triazole-5-carboxylic acid] | 100 to 1000 |
| CC(C)C(=O)OCn1nnc(Oc2ccc(Cl)c(Cl)c2)c1C(=O)O [Compound 103, 4-(3,4-dichlorophenoxy)-1-((isobutyryloxy)methyl)-1H-1,2,3-triazole-5-carboxylic acid] | 100 to 1000 |
| CC(=O)OCn1nnc(Oc2ccc(Cl)c(Cl)c2)c1C(=O)O [Compound 104, 1-(acetoxymethyl)-4-(3,4-dichlorophenoxy)-1H-1,2,3-triazole-5-carboxylic acid] | 100 to 1000 |

same assay, conditions: Table 1; read-out: Range (range of IC50 values calculated from the enzymatic assays)

| SMILES | IC50 [nM] |
| --- | --- |
| O=C(O)c1[nH]nnc1NC1CCCN(c2ccc(OC(F)(F)F)cc2)C1 (centres unmarked) [Compound 70, 4-((1-(4-(trifluoromethoxy)phenyl)piperidin-3-yl)amino)-1H-1,2,3-triazole-5-carboxylic acid] | 100 to 1000 |
| O=C(O)c1[nH]nnc1Nc1ccc2cc(Cl)ccc2n1 [Compound 76, 4-((6-chloroquinolin-2-yl)amino)-1H-1,2,3-triazole-5-carboxylic acid] | < 100 |
| O=C(O)c1[nH]nnc1Nc1ccc(Cl)c2ccccc12 [Compound 78, 4-((4-chloronaphthalen-1-yl)amino)-1H-1,2,3-triazole-5-carboxylic acid] | 100 to 1000 |
| O=C(O)c1[nH]nnc1Nc1ccc2ncsc2c1 [Compound 79, 4-(benzo[d]thiazol-6-ylamino)-1H-1,2,3-triazole-5-carboxylic acid] | 1000 to 10000 |
| CC(C)(C)C(=O)OCOC(=O)c1[nH]nnc1Nc1ccc(-c2ccc(Cl)cc2)cc1 [Compound 81, (pivaloyloxy)methyl 4-((4′-chloro-[1,1′-biphenyl]-4-yl)amino)-1H-1,2,3-triazole-5-carboxylate] | 1000 to 10000 |
| O=C(O)c1[nH]nnc1Nc1ccc2cc(Cl)ccc2c1 [Compound 82, 4-((6-chloronaphthalen-2-yl)amino)-1H-1,2,3-triazole-5-carboxylic acid 2,2,2-trifluoroacetate] | 100 to 1000 |
| O=C(O)c1[nH]nnc1OC1CCN(c2ccc(OC(F)(F)F)cc2)C1 (centres unmarked) [Compound 90, 4-((1-(4-(trifluoromethoxy)phenyl)pyrrolidin-3-yl)oxy)-1H-1,2,3-triazole-5-carboxylic acid] | < 100 |
| O=C(O)c1nn[nH]c1Oc1ccc(Cl)c2ccccc12 [Compound 92, 4-((4-chloronaphthalen-1-yl)oxy)-1H-1,2,3-triazole-5-carboxylic acid] | < 100 |
| O=C(O)c1[nH]nnc1Oc1ccc(OC(F)(F)F)cc1 [Compound 96, 4-(4-(trifluoromethoxy)phenoxy)-1H-1,2,3-triazole-5-carboxylic acid] | < 100 |
| O=C(O)c1[nH]nnc1Oc1ccc2ncsc2c1 [Compound 99, 4-(benzo[d]thiazol-6-yloxy)-1H-1,2,3-triazole-5-carboxylic acid 2,2,2-trifluoroacetate] | < 100 |
| CC(=O)OCn1nnc(Oc2ccc3cc(Br)ccc3c2)c1C(=O)O [Compound 101, 1-(acetoxymethyl)-4-((6-bromonaphthalen-2-yl)oxy)-1H-1,2,3-triazole-5-carboxylic acid] | 100 to 1000 |
| CC(=O)OCOC(=O)c1[nH]nnc1Oc1ccc2cc(Br)ccc2c1 [Compound 105, acetoxymethyl 4-((6-bromonaphthalen-2-yl)oxy)-1H-1,2,3-triazole-5-carboxylate] | 1000 to 10000 |
| CC(C)(C)C(=O)OCOC(=O)c1[nH]nnc1Oc1ccc(Cl)c(Cl)c1 [Compound 107, (pivaloyloxy)methyl 4-(3,4-dichlorophenoxy)-1H-1,2,3-triazole-5-carboxylate] | 1000 to 10000 |
| CC(=O)OCOC(=O)c1[nH]nnc1Oc1ccc(Cl)c(Cl)c1 [Compound 109, acetoxymethyl 4-(3,4-dichlorophenoxy)-1H-1,2,3-triazole-5-carboxylate] | < 100 |

Second part, the compound after the results:

| IC50 [nM] | SMILES |
| --- | --- |
| < 100 | O=C(O)c1[nH]nnc1NCc1ccc(-c2ccc(Cl)c(Cl)c2)cc1 [Compound 68, 4-(((3′,4′-dichloro-[1,1′-biphenyl]-4-yl)methyl)amino)-1H-1,2,3-triazole-5-carboxylic acid] |
| < 100 | O=C(O)c1[nH]nnc1Nc1ccc(Cl)c(Cl)c1 [Compound 69, 4-((3,4-dichlorophenyl)amino)-1H-1,2,3-triazole-5-carboxylic acid] |
| 100 to 1000 | O=C(O)c1[nH]nnc1NC1CCN(c2ccc(Cl)cc2)CC1 [Compound 71, 4-((1-(4-chlorophenyl)piperidin-4-yl)amino)-1H-1,2,3-triazole-5-carboxylic acid 2,2,2-trifluoroacetate] |
| > 10000 | O=C(OC1CC1)c1[nH]nnc1Nc1ccc(-c2ccc(OC(F)(F)F)cc2)cc1 [Compound 72, cyclopropyl 4-((4′-(trifluoromethoxy)-[1,1′-biphenyl]-4-yl)amino)-1H-1,2,3-triazole-5-carboxylate 2,2,2-trifluoroacetate] |
| 100 to 1000 | O=C(O)c1[nH]nnc1NC1CCN(c2ccc(OC(F)(F)F)cc2)C1 (centres unmarked) [Compound 73] |
| 100 to 1000 | O=C(O)c1[nH]nnc1NC1CCN(c2ccc(OC(F)(F)F)cc2)CC1 [Compound 74, 4-((1-(4-(trifluoromethoxy)phenyl)piperidin-4-yl)amino)-1H-1,2,3-triazole-5-carboxylic acid] |
| 100 to 1000 | CN(c1ccc(-c2ccc(Cl)cc2)cc1)c1nn[nH]c1C(=O)O [Compound 75, 4-((4′-chloro-[1,1′-biphenyl]-4-yl)(methyl)amino)-1H-1,2,3-triazole-5-carboxylic acid 2,2,2-trifluoroacetate] |
| 1000 to 10000 | O=C(O)c1[nH]nnc1Nc1ccc2c(c1)CCCC2 [Compound 77, 4-((5,6,7,8-tetrahydronaphthalen-2-yl)amino)-1H-1,2,3-triazole-5-carboxylic acid] |
| 100 to 1000 | O=C(O)c1[nH]nnc1Nc1ccc(F)c(F)c1 [Compound 80, 4-((3,4-difluorophenyl)amino)-1H-1,2,3-triazole-5-carboxylic acid] |
| 100 to 1000 | O=C(O)c1[nH]nnc1Nc1ccc(OC(F)(F)F)cc1 [Compound 83, 4-((4-(trifluoromethoxy)phenyl)amino)-1H-1,2,3-triazole-5-carboxylic acid] |
| 100 to 1000 | O=C(O)c1[nH]nnc1N1CCc2ccccc2C1 [Compound 84, 4-(3,4-dihydroisoquinolin-2(1H)-yl)-1H-1,2,3-triazole-5-carboxylic acid 2,2,2-trifluoroacetate] |
| < 100 | O=C(O)c1[nH]nnc1Nc1ccc2cc(Br)ccc2c1 [Compound 85, 4-((6-bromonaphthalen-2-yl)amino)-1H-1,2,3-triazole-5-carboxylic acid 2,2,2-trifluoroacetate] |
| < 100 | O=C(O)c1[nH]nnc1Oc1ccc(-c2ccc(OC(F)(F)F)cc2)cc1 [Compound 87, 4-((4′-(trifluoromethoxy)-[1,1′-biphenyl]-4-yl)oxy)-1H-1,2,3-triazole-5-carboxylic acid] |
| < 100 | O=C(O)c1[nH]nnc1Oc1ccc2cc(Br)ccc2c1 [Compound 89, 4-((6-bromonaphthalen-2-yl)oxy)-1H-1,2,3-triazole-5-carboxylic acid] |
| < 100 | O=C(O)c1[nH]nnc1Oc1cc(Cl)cc(Cl)c1 [Compound 91, 4-(3,5-dichlorophenoxy)-1H-1,2,3-triazole-5-carboxylic acid] |
| > 10000 | COC(=O)c1[nH]nnc1Oc1ccc2cc(Br)ccc2c1 [Compound 93, methyl 4-((6-bromonaphthalen-2-yl)oxy)-1H-1,2,3-triazole-5-carboxylate] |
| < 100 | O=C(O)c1[nH]nnc1Oc1ccc(Cl)cc1Cl [Compound 95, 4-(2,4-dichlorophenoxy)-1H-1,2,3-triazole-5-carboxylic acid] |
| < 100 | O=C(O)c1[nH]nnc1Oc1ccc2c(c1)CCCC2 [Compound 97, 4-((5,6,7,8-tetrahydronaphthalen-2-yl)oxy)-1H-1,2,3-triazole-5-carboxylic acid] |
| < 100 | O=C(O)c1[nH]nnc1Oc1cc(Cl)ccc1Cl [Compound 100, 4-(2,5-dichlorophenoxy)-1H-1,2,3-triazole-5-carboxylic acid] |
| < 100 | O=C(O)c1[nH]nnc1Oc1ccc2cc(Cl)ccc2c1 [Compound 106, 4-((6-chloronaphthalen-2-yl)oxy)-1H-1,2,3-triazole-5-carboxylic acid 2,2,2-trifluoroacetate] |
| 100 to 1000 | CC(C)C(=O)OCOC(=O)c1[nH]nnc1Oc1ccc(Cl)c(Cl)c1 [Compound 108, (isobutyryloxy)methyl 4-(3,4-dichlorophenoxy)-1H-1,2,3-triazole-5-carboxylate] |

— patent US11384055B2 (BIOMARIN PHARMACEUTICAL INC., priority 2017, dated 2022)
